Measurements from the PolyMetriX glass transition set.
Where a name gives a salt, the structure may show the parent alone. ± gives the standard deviation of the reports.

| SMILES | glass transition temperature |
| --- | --- |
| *c1ccc2c(c1)C(CCCCCC)(CCCCCC)c1cc(-c3ccc4c(c3)c3cc(*)ccc3n4-c3ccccc3)ccc1-2 (repeat unit) | 170.00 °C |
| *c1cccc(N2C(=O)c3ccc(Oc4ccc(Oc5ccc6c(c5)C(=O)N(*)C6=O)cc4)cc3C2=O)c1 (repeat unit) | 255.00 °C |
| *CCN(*)C(=O)c1ccc(F)c(F)c1 (repeat unit) | 101.00 °C |
| */C=C/c1ccc(OC(=O)c2ccc(C(=O)Oc3cccc4ccc(*)nc34)cc2)cc1 (repeat unit) | 112.00 °C |
| *CCCCCSS* (repeat unit) | -72.00 °C |
| *CC(*)OC(=O)C(F)(F)F (repeat unit) [Poly(vinyl trifluoroacetate) ] | 46 ± 5.6 °C |
| *CC(*)C(=O)OCCCCCCOc1ccc(/C=N/c2ccc(OCCCCC)cc2)c(O)c1 (repeat unit) | 41.00 °C |
| *Oc1ccc2c(c1)C(C)(c1ccc(OC(=O)c3ccc(C(*)=O)cc3)cc1)CC2(C)C (repeat unit) | 252.50 °C |
| *c1ccc(-c2ccc(N3C(=O)c4ccc(Oc5ccc6c(c5)C(=O)N(*)C6=O)cc4C3=O)c(OCCCCCCOc3ccc(/C=C/c4ccc(F)cc4)cc3)c2)cc1OCCCCCCOc1ccc(/C=C/c2ccc(F)cc2)cc1 (repeat unit) | 124.00 °C |
| *c1ccc(Oc2ccc(C(=O)c3ccc(Oc4ccc(-c5nc(-c6cccc(-c7nc(*)c(-c8ccccc8)[nH]7)c6)[nH]c5-c5ccccc5)cc4)cc3)cc2)cc1 (repeat unit) | 282.00 °C |
| *CCCS(=O)(=O)CCCCS(=O)(=O)CCCOC(=O)c1ccccc1C(=O)O* (repeat unit) | 49.00 °C |
| *c1cccc(C(c2cccc(N3C(=O)c4ccc(Oc5ccc6c(c5)C(=O)N(*)C6=O)cc4C3=O)c2)(C(F)(F)F)C(F)(F)F)c1 (repeat unit) | 224.50 °C |
| *CC(COc1ccc(C(C)(C)c2ccc(O*)cc2)cc1)OC(=O)/C=C/c1ccco1 (repeat unit) | 107.20 °C |
| *c1ccc(Cc2ccc(N3C(=O)c4cc(-c5ccc(C(C)(C)C)cc5)c(-c5cc6c(cc5-c5ccc(C(C)(C)C)cc5)C(=O)N(*)C6=O)cc4C3=O)cc2)cc1 (repeat unit) | 360.00 °C |
| *CC(*)OC(C)=O (repeat unit) [poly(vinyl acetate)] | 40.92 ± 13 °C |
| *c1nc(-c2ccccc2)nc(N(CCCCCCCCCCN(*)c2ccccc2)c2ccccc2)n1 (repeat unit) | 62.00 °C |
| *Oc1ccc(C(C)(C)c2ccc(C(C)(C)c3ccc(Oc4ccc(C(=O)Nc5ccc(Cc6ccc(NC(=O)c7ccc(*)cc7)cc6)cc5)cc4)cc3)cc2)cc1 (repeat unit) | 162.00 °C |
| *C(F)(F)C(*)(F)c1ccccc1 (repeat unit) | 206.00 °C |
| *CC(*)CCCCCCCCCC (repeat unit) | -6.00 °C |
| *CC(*)OC(=O)C1CCCCC1 (repeat unit) | 66.00 °C |
| *CCN(*)C(=O)Cc1ccc(C(F)(F)F)cc1 (repeat unit) | 75.00 °C |
| *CC(*)(C)C(=O)Oc1cc(C)ccc1C (repeat unit) | 111.00 °C |
| *c1ccc(Oc2ccc(C3(c4ccc(Oc5ccc(-c6ccc(*)s6)cc5C(F)(F)F)cc4)c4ccccc4-c4ccccc43)cc2)c(C(F)(F)F)c1 (repeat unit) | 169.00 °C |

| SMILES | glass transition temperature |
| --- | --- |
| *CC(*)(C)C(=O)OCC(CC)CCCC (repeat unit) | -10.00 °C |
| *CCCCCCNC(=O)c1c(Cl)c(Cl)c(C(=O)N*)c(Cl)c1Cl (repeat unit) | 282.00 °C |
| */C(OC)=C(\OC)c1ccc(*)s1 (repeat unit) | 91.00 °C |
| *CC(*)CCC1CCCCC1 (repeat unit) | 40.00 °C |
| *Oc1ccc(C(C)(C)c2cccc(C(C)(C)c3ccc(Oc4ccc(C(=O)Nc5cccc(NC(=O)c6ccc(*)cc6)c5)cc4)cc3)c2)cc1 (repeat unit) | 155.00 °C |
| *CCCCCC(=O)Oc1ccc(OC(=O)CCCCCn2c(=O)c3cc4c(=O)n(*)c(=O)c4cc3c2=O)c(Cl)c1 (repeat unit) | 87.00 °C |
| *Oc1ccc(C(=O)Nc2cc(SCCC#N)c(NC(=O)c3ccc(*)cc3)cc2SCCC#N)cc1 (repeat unit) | 158.00 °C |
| *CC(*)CC (repeat unit) [Poly(butylene)] | -36.6 ± 12 °C |
| *c1cccc(N2C(=O)c3cccc(Oc4ccc(C(C)(C)c5ccc(Oc6cccc7c6C(=O)N(*)C7=O)cc5)cc4)c3C2=O)c1 (repeat unit) | 227.50 °C |
| *CCCCOC(=O)NNC(=O)CCCCCCCCC(=O)NNC(=O)O* (repeat unit) | 56.00 °C |
| *CC(*)(C)C(=O)OCCCCCCN1CCN(c2ccc(/N=N/c3ccc([N+](=O)[O-])cc3)cc2)CC1 (repeat unit) | 60.00 °C |
| *C/C=C(\C)C(C)S(*)(=O)=O (repeat unit) | 73.00 °C |
| *c1cc(Br)c(OC(=O)c2ccc(C(=O)Oc3c(Br)cc(C4(*)OC(=O)c5ccccc54)cc3Br)cc2)c(Br)c1 (repeat unit) | 319.00 °C |
| *Oc1ccc(N[Se]Nc2ccc(*)cc2)cc1 (repeat unit) | 55.00 °C |
| *CCCCCCCCCCOC(=O)Nc1ccc(C)c(NC(=O)O*)c1 (repeat unit) | 18.00 °C |
| *CC(*)CCc1ccccc1 (repeat unit) | 10.00 °C |
| *c1ccc2c(c1)C(=O)N(c1ccc(-c3ccc(Oc4ccc5c(c4)C(C)(c4ccc(Oc6ccc(-c7ccc(N8C(=O)c9ccc(C(*)(C(F)(F)F)C(F)(F)F)cc9C8=O)cc7)cc6C(F)(F)F)cc4)CC5(C)C)c(C(F)(F)F)c3)cc1)C2=O (repeat unit) | 262.00 °C |
| *Oc1ccccc1C(=O)OC(=O)c1ccccc1OC(=O)CCCCCCCC(*)=O (repeat unit) | 25.00 °C |
| *N=P(*)(OCCOCCOCCOP1(OCCOCCOC)=NP(OCCOCCOC)(OCCOCCOC)=NP(OCCOCCOC)(OCCOCCOC)=N1)OCCOCCOCCOP1(OCCOCCOC)=NP(OCCOCCOC)(OCCOCCOC)=NP(OCCOCCOC)(OCCOCCOC)=N1 (repeat unit) | -38.00 °C |
| *Oc1cccc(NC(=O)c2cccc(C(=O)Nc3ccc(*)cc3)c2)c1 (repeat unit) | 240.00 °C |
| *CCCCCCCCCNC(=O)CCCCCCCCCCCCCCCCCCC(=O)N* (repeat unit) | 42.00 °C |
| *Oc1ccc(C(C)(C)c2ccc(OC(=O)c3ccc(C(*)=O)cc3)cc2)cc1 (repeat unit) [Poly(Bisphenol A terephthalate)] | 199.92 ± 1.5 °C |
| *CC(*)(C)C(=O)OCCOCCOCC1(C)COCCOCCOCCOC1 (repeat unit) | 10.00 °C |

| SMILES | glass transition temperature |
| --- | --- |
| *c1ccc(C(c2ccc(N3C(=O)c4ccc(OCCN(CCOc5ccc6c(c5)C(=O)N(*)C6=O)c5ccc(/C=C/c6ccc([N+](=O)[O-])cc6)cc5)cc4C3=O)cc2)(C(F)(F)F)C(F)(F)F)cc1 (repeat unit) | 180.70 °C |
| *CCN(CCOC(=O)c1ccc(C(=O)O*)c(OCCC)c1)c1ccc(/N=N/c2nc(C#N)c(C#N)[nH]2)cc1 (repeat unit) | 152.00 °C |
| *CC(*)(C)C(=O)OCCCCc1ccccc1 (repeat unit) | 9.00 °C |
| *NC(CCC(=O)OCCCCCCCC)C(*)=O (repeat unit) | -59.50 °C |
| *c1ccc(Oc2ccc(N3C(=O)c4ccc(-c5ccc6c(c5)C(=O)N(*)C6=O)cc4C3=O)cc2)cc1 (repeat unit) | 279.00 °C |
| *c1ccc(C(C)(C)c2ccc(C(C)(C)c3ccc(N4C(=O)c5ccc(Oc6ccc7ccc(Oc8ccc9c(c8)C(=O)N(*)C9=O)cc7c6)cc5C4=O)cc3)cc2)cc1 (repeat unit) | 246.00 °C |
| *CCCCCOC(=O)c1ccc(C(=O)O*)cc1 (repeat unit) | 16.00 °C |
| *CC(O*)C1CC(F)(F)C1(F)F (repeat unit) | -25.00 °C |
| *Oc1ccc(Oc2ccc(NC(=O)c3ccc(-c4ccc(C(=O)Nc5ccc(*)cc5)c(C)c4)cc3C)cc2)cc1 (repeat unit) | 219.00 °C |
| *O[Si](*)(C)CCc1ccc(O)cc1 (repeat unit) | 39.00 °C |
| *c1ccc(OCC2CCC(COc3ccc(N4C(=O)c5ccc(-c6ccc7c(c6)C(=O)N(*)C7=O)cc5C4=O)cc3)CC2)cc1 (repeat unit) | 254.40 °C |
| *CCCCC(=O)Oc1ccc(OC(=O)c2ccc3c(c2)C(=O)N(*)C3=O)c(C)c1 (repeat unit) | 75.76 °C |
| *CCN(*)C(=O)c1ccc2ccccc2c1 (repeat unit) | 130.00 °C |
| *c1ccc(OCCCCCCCCCCCOC(=O)c2ccc(C(=O)OCCCCCCCCCCCOc3cccc(-c4nnc(*)s4)c3)cc2)cc1 (repeat unit) | 35.00 °C |
| *CC(*)(CC(=O)Oc1ccc(OCCCCC)cc1)C(=O)Oc1ccc(OCCCCC)cc1 (repeat unit) | 73.50 °C |
| *c1ccc(Oc2ccc(-c3nc4ccc(-c5ccc6nc(*)c(-c7ccccc7)nc6c5)cc4nc3-c3ccccc3)cc2)cc1 (repeat unit) | 306.00 °C |
| *c1cccc(-c2nc3cc(-c4ccc5[nH]c(*)nc5c4)ccc3[nH]2)c1 (repeat unit) | 410.00 °C |
| *c1ccc(OCOc2ccc(-c3nc(-c4ccc([N+](=O)[O-])cc4)oc3*)cc2)cc1 (repeat unit) | 194.00 °C |
| *c1ccc(Oc2ccc(C(c3ccc(Oc4ccc(N5C(=O)c6ccc7c8c(ccc(c68)C5=O)C(=O)N(*)C7=O)cc4)cc3)(C(F)(F)F)C(F)(F)F)cc2)cc1 (repeat unit) | 280.00 °C |
| *c1ccc(N(c2ccc(C#N)cc2)c2ccc(N3C(=O)c4ccc(Oc5ccc(C(C)(C)c6ccc(Oc7ccc8c(c7)C(=O)N(*)C8=O)cc6)cc5)cc4C3=O)cc2)cc1 (repeat unit) | 230.00 °C |
| */C=C/c1cccc(/C=C/[Si](C)(CCC(F)(F)F)c2cccc([Si](*)(C)CCC(F)(F)F)c2)c1 (repeat unit) | 9.50 °C |
| */C=C/C1CC(*)C2C(=O)N(CCCCCCCCCC)C(=O)C12 (repeat unit) | 46.00 °C |
